One substance from patent publication US20080015147A1, “Method for inhibiting neuronal cell death” (priority 2006, published 2008) can be followed below.

Holding throughout (assay type): cell-based, mouse
The test system of experiment [1] is N38 cells. The experiment can be described thus: Cell proliferation by direct hemocytometer counts. Conditions: for total cell numbers relative to vehicle: 48 hrs, 2×10^−7 M. The protocol: At 24 and 48 hrs, the medium was replaced with medium buffered at pH 6.8, 7.4, 8.0 or 8.4. Half of the cell groups received (2×10^−7 M) TCAP-1, whereas the other half received phosphate buffered saline (PBS) pH 7.4 containing 8 g NaCl, 0.2 g KCl, 1.4 g Na2HPO4, 0.2 g KH2PO4 in. 800 mL ddH2O. For all groups, 4 replicates were run. Digital pictures were taken at 24, 48 and 72 hrs using an Olympus IX&1 inverted microscope at a magnification of 200× and analyzed using LabWorks 4.0 Image Acquisition and Analysis software (UltraViolet Products Ltd).
The effect of TCAP-1 on cell proliferation at each pH was examined by direct counts using a hemocytometer and indirectly by assessing mitochondrial activity using a colorimetric MTT (3-[4,5-dimethylthiazol-2-yl]-2,5-diphenyl tetrazolium bromide) assay on cultured N38 cells. For hemocytometer counts, the cultures were incubated for 24 and 48 hrs. The cells were suspended using 1 ml of 0.25% Trypsin with EDTA (Gibco-Invitrogen, Burlington, Canada), centrifuged at 1600 RPM for 4 min, and resuspended with PBS. The cells in 50 μl aliquots were vortexed and counted on a hemocytometer.

Experiment [2] has as its system PARP. Description: PARP cleavage by immunoblot. Conditions: 48 hour; all pH treatments. Here is the method:
Using the same protocol, changes in PARP expression were determined at 48 hrs. The membrane was incubated with PARP primary antibody (Cell Signaling Technology, Beverly) at a titre of 1:100. The membranes were washed 3 times for 5 min with 10 ml of PBST followed by membrane incubation with anti-rabbit horseradish peroxidase (HRP)-conjugated secondary antibody (Amersham, Baie d'Urfé) at 1:3000 in 6 ml of PBST-milk with gentle agitation for 1 hr at RT. The membranes were then washed 3 times for 5 min with 10 ml of PBST then exposed to Kodak X-OMAT Blue scientific imaging film (Perkin Elmer Canada Inc, Vaudreuil-Dorion) for 30 min. Total optical density of the blots, were quantified using LabWorks 4.0 Image Acquisition and Analysis Software from Ultra-Violet Products Ltd. (UVP).
Background: In western blotting, separated proteins are transferred to a membrane and probed.

The subject of experiment [3] is Akt. The experiment can be described thus: Akt western blot. Conditions: all pH treatments; 48 hrs. Here is the method: Western blots using Akt and phosphorylated Akt (P-Akt) primary antibodies were conducted on all conditions of the cultured N38 cells to determine whether TCAP was preventing cell death by phosphorylation. The same western blot procedure outlined above was repeated with an Akt primary antibody (Cell Signalling, Beverly) at a titer of 1:500, followed by membrane incubation with anti-rabbit HRP-conjugated secondary antibody (Amersham, Baie d'Urfé) at 1:3000, followed by exposure on Kodak X-OMAT Blue film (Perkin Elmer Canada Inc, Vaudreuil-Dorion) for 30 min. Phospho Akt expression at 48 hrs was determined using the method described above with a PAkt primary antibody (Cell Signalling 9271) at 1:1000 followed by membrane incubation with anti-rabbit HRP-conjugated secondary antibody (Amersham, Baie d'Urfé) at 1:2000 followed by exposure on Kodak X-OMAT Blue film (Perkin Elmer Canada Inc, Vaudreuil-Dorion) overnight. Cultured N38 cells were serum-starved for 48 hours in order to induce phosphorylation and following the same protocol above were loaded as a control. Total optical density of the blots, were quantified using LabWorks 4.0 Image Acquisition and Analysis Software from Ultra-Violet Products Ltd. (UVP).

Experiment [4] has as its system N38 cells. The experiment can be described thus: Bromodeoxyuridine (BrdU) incorporation assay. To be noted: 24 or 48 hrs; pH extremes. The source says: The evaluation of cell cycle progression is important when assessing the viability of a cell population. The cell cycle is a sequence of stages that a cell passes through between one division and the next. The cell cycle oscillates between mitosis and the interphase, which is divided into G, S, and G 2. In the G phase there is a high rate of biosynthesis and growth; in the S phase there is the doubling of the DNA content as a consequence of chromosome replication; in the G 2 phase the final preparations for cell division (cytokinesis) are made (Raza, 1985). In order to determine whether TCAP was increasing cell cycle efficiency, a bromodeoxyuridine (BrdU) non-isotopic enzyme immunoassay was conducted (Calbiochem, Canada). BrdU incorporation into newly synthesized DNA of actively proliferating cells enables one to quantify cell cycle progression and the population of cells entering the S phase(Gratzner, 1982; Raza, 1985).
N38 cells were grown in a 96-well culture plate using 100 μl at an initial density of 2×10^5 cells/ml. Controls consisted of a blank, one well containing only DMEM with no cells and background, and one well with cells but with no BrdU label added. […] Absorbance was measured on a SPECTRAmax Microplate spectrophotometer at dual wavelengths at 450-540 nm.

Experiment [5] concerns superoxide copper chaperone (CCSD). The experiment can be described thus: Superoxide copper chaperone (CCSD) expression by real-time PCR. Conditions: pH 8.4. On the technique in general: Real-time PCR tracks product formation cycle by cycle.
Experiment [6] deals with cells treated with 50 μM H2O2. The experiment can be described thus: H2O2 toxicity MTT assay. In general terms: Tetrazolium dyes change colour on reduction, which living cells bring about.
Experiment [7] deals with catalase. Description: Catalase assay on pH treated cells. The protocol: A catalase assay was performed on the pH treated cells in order to determine whether TCAP-1 was conferring survivability to the cells via upregulation of catalase and thus increasing H2O 2 breakdown into H2O and O2 (FIG. 9B). […] Bovine liver was also assayed as a positive control.

As for “teneurin C-terminus associated peptide [TCAP-1]”, the “total number of cells vs vehicle” value in experiment [1] (24 hrs, any pH condition) is given as “no significant differences in the total number of cells”. Further, the “total cell numbers relative to vehicle” value in experiment [1] (pH 6.8) is reported as “increased the number of cells”; in experiment [1] (pH 6.8, listed as TCAP), “inhibited the decrease in total cell numbers”; in experiment [1] (pH 8.0), “increased the number of cells”; in experiment [1] (pH 8.0, listed as TCAP), “inhibited the decrease in total cell numbers”; in experiment [1] (pH 8.4) it was “increased the number of cells”; in experiment [1] (pH 8.4, listed as TCAP), “inhibited the decrease in total cell numbers”. In addition, the “PARP on western blot, vehicle vs TCAP” value in experiment [2] was “no significant differences between vehicle and TCAP treated samples”. In experiment [3], the “endogenous Akt on western blot, vehicle vs TCAP” value was “no difference in endogenous Akt”. In experiment [4], the BrdU incorporation result is on record as “no significant results”. For the same substance, the “CCSD expression increase over vehicle treated cells” value in experiment [5] is recorded as roughly 4.5 fold. Besides, the “mitochondrial (MTT) activity vs vehicle” value in experiment [6] (0 hours) was “no effect”; in experiment [6] (6 hours, p<0.001), “significantly increased mitochondrial activity”; in experiment [6] (12 hours, p<0.001), “significantly increased mitochondrial activity”; in experiment [6] (24 hours, p<0.05) it was “less significant effect”; in experiment [6] (48 hours, p<0.001), “significantly increased mitochondrial activity”. The “MTT activity relative to vehicle” value in experiment [6] (6 to 48 hours) is given as “significant increase in MTT activity”. For the same substance, the “catalase levels vs vehicle” value is “no significant effects” in experiment [7] (pH 6.8); “no significant effects” in experiment [7] (pH 7.4); “significant TCAP-1 effect” in experiment [7] (pH 8.0, p<0.01); “significantly increased catalase levels” in experiment [7] (pH 8.4, p<0.001).
